Measured values reported in ChEMBL document CHEMBL1201862, “PubChem BioAssay data set” (2004).
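Growth conditions: 96-well plates. Treatment: test compound, 48 hours, 5 concentrations. Analysis: linear interpolation between bracketing concentrations; unreached endpoints set to highest concentration. Here, GI50 denotes the concentration required for 50% inhibition of growth.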 The source made the active and inactive calls. Cut-off read from the data, not from the text of the source: active = GI50 up to about 1.1 µM and inactive = higher.

Experiments:
Assay in all cases: DTP human tumour cell line panel, 48 h
A498 = test system: A498
CCRF-CEM = test system: CCRF-CEM
HOP-92 = test system: HOP-92
HT-29 = test system: HT-29
K562 = test system: K562
M14 = test system: M14
OVCAR-4 = test system: OVCAR-4
SK-MEL-5 = test system: SK-MEL-5
SK-OV-3 = test system: SK-OV-3
SNB-19 = test system: SNB-19
SNB-78 = test system: SNB-78
SR = test system: SR
SW-620 = test system: SW-620
U-251 = test system: U-251
CAKI-1 = test system: CAKI-1
LOX IMVI = test system: LOX IMVI

Measured: GI50

O=C1C2ON3c4ccccc4C(=O)C3(c3ccccc3)C2C(=O)N1c1ccccc1 (centres undefined)
inactive: A498 > 100 µM | CCRF-CEM > 100 µM | HOP-92 > 100 µM | HT-29 > 100 µM | K562 > 100 µM | M14 > 100 µM | OVCAR-4 > 100 µM | SK-MEL-5 > 100 µM | SK-OV-3 > 100 µM | SNB-19 > 100 µM | SNB-78 > 100 µM | SR > 100 µM | SW-620 > 100 µM | U-251 > 100 µM

CCOC(=O)C(=O)Nc1c(N(CC)CC)n2ccccc2nc1=O
inactive: A498 > 100 µM | CAKI-1 > 100 µM | CCRF-CEM > 100 µM | HOP-92 > 100 µM | HT-29 > 100 µM | K562 > 100 µM | M14 > 100 µM | SK-MEL-5 > 100 µM | SK-OV-3 > 100 µM | SNB-19 > 100 µM | SNB-78 > 100 µM | SR > 100 µM | SW-620 > 100 µM | U-251 > 100 µM

Cc1cc(N)c(C)c2c1[nH]c1ccc(O)cc12
inactive: CAKI-1 > 100 µM | CCRF-CEM 20.7 µM | HT-29 > 100 µM | K562 35 µM | LOX IMVI > 100 µM | M14 > 100 µM | OVCAR-4 > 100 µM | SNB-19 > 100 µM | SNB-78 > 100 µM | SR 45 µM | SW-620 39.1 µM | U-251 88.5 µM

CC(=O)OC(C)(C)C1CCC(C)(C(O)COc2ccc(CCNC(=O)c3ccccc3)cc2)O1 (centres undefined)
inactive: CAKI-1 > 100 µM | CCRF-CEM 21.6 µM | HOP-92 > 100 µM | HT-29 > 100 µM | LOX IMVI 31.4 µM | M14 28.6 µM | OVCAR-4 63.2 µM | SK-MEL-5 11.6 µM | SK-OV-3 > 100 µM | SNB-19 > 100 µM | SNB-78 48.3 µM | SR 47.1 µM | SW-620 > 100 µM | U-251 53.3 µM

Cc1c(-c2nnc(-c3ccccc3)o2)c(=O)n(-c2ccccc2)n1C
inactive: A498 > 100 µM | CCRF-CEM > 100 µM | HOP-92 > 100 µM | HT-29 > 100 µM | K562 > 100 µM | LOX IMVI > 100 µM | M14 > 100 µM | OVCAR-4 > 100 µM | SK-OV-3 > 100 µM | SNB-19 > 100 µM | SNB-78 > 100 µM | SR > 100 µM | SW-620 > 100 µM | U-251 > 100 µM

CN1C2(c3ccccc3)c3c(-c4ccccc4)sc(-c4ccccc4)c3C1(c1ccccc1)C1C(=O)N(c3ccccc3)C(=O)C12 (centres undefined)
inactive: A498 > 100 µM | CAKI-1 > 100 µM | CCRF-CEM > 100 µM | HOP-92 > 100 µM | HT-29 > 100 µM | K562 > 100 µM | LOX IMVI > 100 µM | M14 > 100 µM | OVCAR-4 > 100 µM | SK-MEL-5 > 100 µM | SK-OV-3 > 100 µM | SNB-19 > 100 µM | SNB-78 > 100 µM | SW-620 > 100 µM | U-251 > 100 µM

COc1cc(C2C(Cl)C(=O)N2NC(=O)c2ccc(N)cc2)ccc1O (centres undefined)
inactive: A498 > 100 µM | CAKI-1 25.5 µM | CCRF-CEM 18.5 µM | HOP-92 25.5 µM | HT-29 23.4 µM | K562 31.3 µM | LOX IMVI 14.8 µM | M14 51.8 µM | OVCAR-4 81.3 µM | SK-MEL-5 84.5 µM | SK-OV-3 60.5 µM | SNB-19 25.3 µM | SNB-78 44.2 µM | SW-620 17.2 µM | U-251 18 µM

CS(=O)(=O)c1ccc(-c2cc(-c3ccc(S(C)(=O)=O)cc3)[n+](-c3cc(-c4ccccc4)c([O-])c(-c4ccccc4)c3)c(-c3ccc(S(C)(=O)=O)cc3)c2)cc1
inactive: A498 44.7 µM | CAKI-1 > 100 µM | HT-29 > 100 µM | K562 > 100 µM | LOX IMVI > 100 µM | M14 > 100 µM | OVCAR-4 > 100 µM | SNB-19 > 100 µM | SNB-78 > 100 µM | SR > 100 µM | SW-620 > 100 µM | U-251 > 100 µM

O=c1ccccc2cccc(O)c12
inactive: A498 > 100 µM | CAKI-1 > 100 µM | CCRF-CEM > 100 µM | HOP-92 84.1 µM | HT-29 > 100 µM | K562 > 100 µM | LOX IMVI > 100 µM | M14 > 100 µM | OVCAR-4 > 100 µM | SK-MEL-5 > 100 µM | SK-OV-3 > 100 µM | SNB-19 > 100 µM | SNB-78 > 100 µM | SW-620 > 100 µM | U-251 > 100 µM

CN(C)c1ccc(/C=N/C23CC4CC(CC(C4)C2)C3)cc1
inactive: A498 > 100 µM | CAKI-1 > 100 µM | CCRF-CEM > 100 µM | HT-29 > 100 µM | K562 > 100 µM | LOX IMVI > 100 µM | M14 > 100 µM | OVCAR-4 > 100 µM | SK-MEL-5 > 10 µM | SK-OV-3 > 100 µM | SNB-19 > 100 µM | SNB-78 > 100 µM | SR > 100 µM | SW-620 > 100 µM | U-251 > 100 µM

C=CC1=C(C)/C(=C/C2=NC(=C\c3[nH]c(CC4NC(=O)C(C)/C4=C\C)c(C)c3CCC(=O)O)/C(CC(=O)O)=C2C)NC1=O (centres undefined)
inactive: CAKI-1 > 100 µM | CCRF-CEM > 100 µM | HOP-92 70 µM | HT-29 > 100 µM | K562 > 100 µM | LOX IMVI > 100 µM | M14 > 100 µM | OVCAR-4 > 100 µM | SK-OV-3 > 100 µM | SNB-19 > 100 µM | SNB-78 > 100 µM | SR > 100 µM | SW-620 > 100 µM | U-251 > 100 µM

Cc1ccc(NC(=O)CC2C(=O)Nc3ccccc3S2(=O)=O)cc1C (centres undefined)
inactive: A498 > 100 µM | CAKI-1 > 100 µM | CCRF-CEM > 100 µM | HOP-92 > 100 µM | HT-29 > 100 µM | K562 > 100 µM | LOX IMVI > 100 µM | M14 > 100 µM | OVCAR-4 > 100 µM | SK-MEL-5 > 100 µM | SNB-19 > 100 µM | SNB-78 > 100 µM | SR > 100 µM | SW-620 > 100 µM | U-251 > 100 µM

Cc1ccccc1-n1c(=S)[nH]c2c(sc(=O)n2-c2ccccc2C)c1=O
inactive: A498 > 100 µM | CAKI-1 > 100 µM | CCRF-CEM > 100 µM | HOP-92 > 100 µM | HT-29 > 100 µM | K562 > 100 µM | M14 > 100 µM | OVCAR-4 > 100 µM | SK-MEL-5 > 100 µM | SK-OV-3 > 100 µM | SNB-19 > 100 µM | SNB-78 > 100 µM | SR > 100 µM | SW-620 > 100 µM | U-251 > 100 µM
